# “And” between values parts separate entries of the source, which are not always exact repeats. Equal values may be shown once.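 1) Cells in 96-well plates. 2) Compound, 48 h, 5 concentrations. 3) Linear interpolation between surrounding doses. 4) Unreached endpoint = highest concentration. Here, GI50 denotes the concentration required for 50% inhibition of growth. Definition used: TGI = concentration required for complete inhibition of growth.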
# Assays:
# Assay in all cases: growth of human tumour cells (NCI), 48 h
# [1] = tested on: SR leukemia
# [2] = tested on: U251 CNS
# [3] = tested on: HOP-62 NSCLC
# [4] = tested on: OVCAR-3 ovarian
# [5] = tested on: COLO 205 colon
# [6] = tested on: EKVX NSCLC
# [7] = tested on: HCT-15 colon
# [8] = tested on: SF-268 CNS
# [9] = tested on: SNB-19 CNS
# [10] = tested on: MDA-MB-231 breast
SMILES,TGI [1] [µM],TGI [2],TGI [3],TGI [4] [µM],TGI [5],TGI [6],TGI [7],TGI [8],TGI [9],TGI [10] [µM],GI50 [1],GI50 [2] [µM],GI50 [3] [µM],GI50 [4] [µM],GI50 [5] [µM],GI50 [6] [µM],GI50 [10] [µM],GI50 [7],GI50 [8] [µM],GI50 [9] [µM]
O=C(O)c1cc2ccc(Cl)cc2c(O)c1C1=CCCCC1,> 100,> 100 µM,> 100 µM,> 100,> 100 µM,> 100 µM,> 100 µM,> 100 µM,> 100 µM,,,,,,,,,,,
COc1cc([N+](=O)[O-])c(S(=O)(=O)O)cc1-[n+]1nc(C(=O)Nc2ccccc2)nn1-c1ccc([N+](=O)[O-])c(S(=O)(=O)[O-])c1,> 100,> 100 µM,> 100 µM,> 100,> 100 µM,> 100 µM,> 100 µM,> 100 µM,> 100 µM,> 100,,,,,,,,,,
COc1cc(-c2ccc[nH]2)[nH]c1/C=C1\N=C(C)C(C(=O)NC(C)C)=C1C,7.87,13.3 µM,15.8 µM,14.2,14.1 µM,23.2 µM,13.5 µM,18 µM,23.8 µM,12.9,2.17 µM,2.59,3.77,3.03,3.25,6.35,2.76,2.08 µM,4.78,10.4
CCCCCCC1CCCCN1C(c1ccccc1)C(O)c1ccccc1 (stereo not drawn),8.54,18.9 µM,22.5 µM,20.8,11.4 µM,21.3 µM,18.1 µM,23.1 µM,30 µM,20.3,2.94 µM,5.98,10.3,8.49,3.09,5.87,6.79,5.39 µM,10.9,15.1
CN(C)CC(=O)N1CCc2c([nH]c3ccccc23)C1c1cccnc1 (stereo not drawn),> 100,> 100 µM,> 100 µM,> 100,> 100 µM,> 100 µM,> 100 µM,> 100 µM,> 100 µM,83.5,,,,,99.7,,21.5,,,
Nc1nc2c(ncn2C2OC(CO)C(O)C2O)c(=O)[nH]1 (stereo not drawn),> 100,> 100 µM and 237 µM,211 µM,235,> 100 µM and 113 µM,> 100 µM and 146 µM,> 100 µM and 191 µM,> 100 µM and 281 µM,> 100 µM and 21.6 µM,> 100,> 100 µM,> 100,,,> 100,> 100,> 100,> 100 µM and 20.7 µM,> 100,
Cc1cc(=O)[nH]c2c1C(=O)c1c(C)cc(=O)n(C)c1C2=O,> 10,0.242 µM,0.0999 µM,0.151,0.037 µM,0.366 µM,0.264 µM,0.465 µM,0.0358 µM,0.789,,,,,,,,,,
CN1CCC(C(=O)Nc2n[nH]c3nnc(-c4ccccc4)cc23)CC1,> 25,> 25 µM,> 25 µM,> 25,> 25 µM,> 25 µM,> 25 µM,> 25 µM,> 25 µM,> 25,> 25 µM,> 25,> 25,10.1,> 25,> 25,> 25,> 25 µM,> 25,> 25
CC(C)OC(=O)c1cc(NC(=S)OC(C)C)ccc1Cl,> 100,> 57.6 µM,> 100 µM,48.3,22.2 µM,32.7 µM,53.4 µM,> 59.6 µM,> 56.3 µM,30.4,,,,,,,,,,
COc1cc(C(=O)/C=C/c2c(C)n([O-])c3ccc(Cl)cc3[n+]2=O)cc(OC)c1OC,5.65,72.3 µM,71 µM,7.98,4.54 µM,> 100 µM,30.9 µM,98.7 µM,> 100 µM,> 100,1.86 µM,4.52,21.6,1.76,1.53,8.46,12.9,4.26 µM,3.53,30.2
O=C([CH-]C(=O)c1ccccc1)c1ccccc1.[CH2-]C.[CH2-]C.[Tl+3],50.1,> 100 µM,> 90.2 µM,> 100,> 100 µM,80.1 µM,> 100 µM,> 100 µM,> 100 µM,> 100,6.35 µM,11.8,22.2,28,26.6,19.7,> 100,15.4 µM,18.4,31.2
COc1cc2c(cc1OC)C(Sc1ccc(Cl)cc1)c1c(nc(N)c(C#N)c1N)O2 (stereo not drawn),1.66,2.14 µM,2.88 µM,2.56,2.95 µM,3.02 µM,2.66 µM,3.17 µM,2.86 µM,2.76,0.329 µM,0.916,1.53,1.27,1.43,1.57,1.37,1.19 µM,1.65,1.47
COc1ccc(-c2nn(-c3cccc(Cl)c3)cc2-c2c(C#N)c(=O)n3[nH]c(-c4ccc(C)o4)nc3c2C#N)cc1,22.1,> 50 µM,> 50 µM,19,11.6 µM,40.8 µM,> 50 µM,> 50 µM,> 50 µM,36.9,4.22 µM,4.71,14.1,5.68,5.47,1.54,4.7,16.6 µM,5.23,8.63
O=C(/C=N/O)Nc1cccc(Cl)c1I,> 100,> 100 µM,> 100 µM,> 100,> 100 µM,79.4 µM,> 100 µM,> 100 µM,> 100 µM,,,,,,,,,,,
c1ccc2[nH]c(-c3cscn3)nc2c1,> 100,> 100 µM,> 100 µM and 19.6 µM,> 100,> 100 µM,> 100 µM,> 100 µM,> 100 µM,> 100 µM,> 100,> 100 µM and 38.7 µM,,,,,,,,,

# Reference: PubChem BioAssay (NCI)
